In patent publication US6479435B1, “Diaryl ethers and processes for their preparation and herbicidal and desiccant compositions containing them” (ISK Americas Incorporated, priority 1997, dated 2002):

Key:
Format in all cases: in vivo
[1] = system: green foxtail (Setaria viridis, SETVI); test: Pre-emerge greenhouse herbicide test, phytotoxicity rating; conditions: 14 days after application, rating scale 0-100
Procedure, shortened: (§1)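 Seeds sown in sandy loam one day before track-sprayer application of acetone solutions at 125–1000 g ai/ha (187 l/ha), then surface-watered to incorporate and bottom-watered. Injury scored visually at 14 days on a 0–100 scale (0 no damage, 100 complete death).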

[2] = system: lambsquarters (Chenopodium album, CHEAL); test: as above; conditions: 14 days after application, rating scale 0-100
Procedure, shortened: as §1

[3] = system: velvetleaf (Abutilon theophrasti, ABUTH); test: as above; conditions: 14 days after application, rating scale 0-100
Procedure, shortened: as §1

[4] = system: Johnsongrass (Sorghum halepense, SORHA); test: as above; conditions: 14 days after application, rating scale 0-100
Procedure, shortened: as §1

[5] = system: redroot pigweed (Amaranthus retroflexus, AMARE); test: as above; conditions: 14 days after application, rating scale 0-100
Procedure, shortened: as §1

[6] = system: sicklepod (Cassia obtusifolia, CASOB); test: as above; conditions: 14 days after application, rating scale 0-100
Procedure, shortened: as §1

[7] = system: large crabgrass (Digitaria sanguinalis, DIGSA); test: as above; conditions: 14 days after application, rating scale 0-100
Procedure, shortened: as §1

[8] = system: common ragweed (Ambrosia artemisiifolia L., AMBEL); test: as above; conditions: 14 days after application, rating scale 0-100
Procedure, shortened: as §1

[9] = system: ivyleaf morningglory (Ipomoea hederacea, IPOHE); test: as above; conditions: 14 days after application, rating scale 0-100
Procedure, shortened: as §1

[10] = system: barnyardgrass (Echinochloa crusgalli, ECHCG); test: as above; conditions: 14 days after application, rating scale 0-100
Procedure, shortened: as §1

[11] = system: common ragweed (Ambrosia artemisiifolia L., AMBEL); test: Post-emerge greenhouse herbicide test, phytotoxicity rating; conditions: 14 days after application; for phytotoxicity rating AMBEL: scale 0-100
Procedure, shortened: (§2)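 Plants at the 2-3 leaf stage, sown 8-21 days earlier, were track-sprayed post-emergence with compound in acetone plus 0.25% v/v non-ionic surfactant at 63-1000 g ai/ha (187 l/ha). Damage was rated at 14 days on a 0-100 scale (0 none, 100 all plants dead), for both crop injury and weed control.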

[12] = system: upland rice (Oryza sp., var.Tebonnet, RICE); test: Post-emerge greenhouse test, crop damage rating; conditions: 14 days after application; for crop damage rating RICE: scale 0-100
Procedure, shortened: as §2

[13] = system: field corn (Zea mays L., var. Dekalb 535, CORN); test: Post-emerge greenhouse test, crop damage rating; conditions: 14 days after application; for crop damage rating CORN: scale 0-100
Procedure, shortened: as §2

[14] = system: upland rice (Oryza sp., var.Tebonnet, RICE); test: Pre-emerge greenhouse test, crop damage rating; conditions: 14 days after application, rating scale 0-100
Procedure, shortened: as §1

[15] = system: field corn (Zea mays L., var. Dekalb 535, CORN); test: Pre-emerge greenhouse test, crop damage rating; conditions: 14 days after application, rating scale 0-100
Procedure, shortened: as §1

[16] = system: soybean (Glycine max L., var. Pella 86, SOY); test: Post-emerge greenhouse test, crop damage rating; design: key to crop damage rating SOY: 0-100 scale: 0 = no damage, 100 = complete death of all plants; conditions: 14 days after application; for crop damage rating SOY: scale 0-100
Procedure, shortened: as §2

[17] = system: soybean (Glycine max L., var. Pella 86, SOY); test: Pre-emerge greenhouse test, crop damage rating; design: key to SOY crop damage rating: 0 = no damage, 100 = complete death of all plants; conditions: 14 days after application, rating scale 0-100
Procedure, shortened: as §1

[18] = system: green foxtail (Setaria viridis, SETVI); test: Post-emerge greenhouse herbicide test, phytotoxicity rating; conditions: 14 days after application; for phytotoxicity rating SETVI: scale 0-100
Procedure, shortened: as §2

[19] = system: lambsquarters (Chenopodium album, CHEAL); test: as above; conditions: 14 days after application; for phytotoxicity rating CHEAL: scale 0-100
Procedure, shortened: as §2

[20] = system: velvetleaf (Abutilon theophrasti, ABUTH); test: as above; conditions: 14 days after application; for phytotoxicity rating ABUTH: scale 0-100
Procedure, shortened: as §2

[21] = system: Johnsongrass (Sorghum halepense, SORHA); test: as above; conditions: 14 days after application; for phytotoxicity rating SORHA: scale 0-100
Procedure, shortened: as §2

[22] = system: redroot pigweed (Amaranthus retroflexus, AMARE); test: as above; conditions: 14 days after application; for phytotoxicity rating AMARE: scale 0-100
Procedure, shortened: as §2

[23] = system: large crabgrass (Digitaria sanguinalis, DIGSA); test: as above; conditions: 14 days after application; for phytotoxicity rating DIGSA: scale 0-100
Procedure, shortened: as §2

[24] = system: ivyleaf morningglory (Ipomoea hederacea, IPOHE); test: as above; conditions: 14 days after application; for phytotoxicity rating IPOHE: scale 0-100
Procedure, shortened: as §2

[25] = system: barnyardgrass (Echinochloa crusgalli, ECHCG); test: as above; conditions: 14 days after application; for phytotoxicity rating ECHCG: scale 0-100
Procedure, shortened: as §2

## CS(=O)(=O)c1cccnc1Oc1cc(-n2c(=O)n3n(c2=S)CCCC3)c(F)cc1Cl [Compound 8-21]
[1]; Rate 125 g al/ha
  SETVI phytotoxicity rating: 99
[1]; Rate 500 g al/ha
  SETVI phytotoxicity rating: 100
[2]; Rate 125 g al/ha
  CHEAL phytotoxicity rating: 100
[2]; Rate 500 g al/ha
  CHEAL phytotoxicity rating: 100
[3]; Rate 125 g al/ha
  ABUTH phytotoxicity rating: 100
[3]; Rate 500 g al/ha
  ABUTH phytotoxicity rating: 100
[4]; Rate 125 g al/ha
  SORHA phytotoxicity rating: 50
[4]; Rate 500 g al/ha
  SORHA phytotoxicity rating: 100
[5]; Rate 125 g al/ha
  AMARE phytotoxicity rating: 100
[5]; Rate 500 g al/ha
  AMARE phytotoxicity rating: 100
[6]; Rate 125 g al/ha
  CASOB phytotoxicity rating: 70
[6]; Rate 500 g al/ha
  CASOB phytotoxicity rating: 100
[7]; Rate 125 g al/ha
  DIGSA phytotoxicity rating: 70
[7]; Rate 500 g al/ha
  DIGSA phytotoxicity rating: 100
[8]; Rate 125 g al/ha
  AMBEL phytotoxicity rating: 70
[8]; Rate 500 g al/ha
  AMBEL phytotoxicity rating: 90
[9]; Rate 125 g al/ha
  IPOHE phytotoxicity rating: 90
[9]; Rate 500 g al/ha
  IPOHE phytotoxicity rating: 100
[10]; Rate 125 g al/ha
  ECHCG phytotoxicity rating: 40
[10]; Rate 500 g al/ha
  ECHCG phytotoxicity rating: 90
[11]; rate 63 g ai/ha
  phytotoxicity rating AMBEL: 60
[11]; rate 500 g ai/ha
  phytotoxicity rating AMBEL: 90
[12]; rate 63 g ai/ha
  crop damage rating RICE: 50
[12]; rate 500 g ai/ha
  crop damage rating RICE: 60
[13]; rate 63 g ai/ha
  crop damage rating CORN: 10
[13]; rate 500 g ai/ha
  crop damage rating CORN: 0
[14]; Rate 125 g al/ha
  RICE crop damage rating: 40
[14]; Rate 500 g al/ha
  RICE crop damage rating: 95
[15]; Rate 125 g al/ha
  CORN crop damage rating: 0
[15]; Rate 500 g al/ha
  CORN crop damage rating: 10
[16]; rate 63 g ai/ha
  crop damage rating SOY: 90
[16]; rate 500 g ai/ha
  crop damage rating SOY: 100
[17]; Rate 125 g al/ha
  SOY crop damage rating: 0
[17]; Rate 500 g al/ha
  SOY crop damage rating: 80
[18]; rate 63 g ai/ha
  phytotoxicity rating SETVI: 0
[18]; rate 500 g ai/ha
  phytotoxicity rating SETVI: 40
[19]; rate 63 g ai/ha
  phytotoxicity rating CHEAL: 99
[19]; rate 500 g ai/ha
  phytotoxicity rating CHEAL: 100
[20]; rate 63 g ai/ha
  phytotoxicity rating ABUTH: 100
[20]; rate 500 g ai/ha
  phytotoxicity rating ABUTH: 100
[21]; rate 63 g ai/ha
  phytotoxicity rating SORHA: 10
[21]; rate 500 g ai/ha
  phytotoxicity rating SORHA: 70
[22]; rate 63 g ai/ha
  phytotoxicity rating AMARE: 100
[22]; rate 500 g ai/ha
  phytotoxicity rating AMARE: 100
[23]; rate 63 g ai/ha
  phytotoxicity rating DIGSA: 0
[23]; rate 500 g ai/ha
  phytotoxicity rating DIGSA: 60
[24]; rate 63 g ai/ha
  phytotoxicity rating IPOHE: 90
[24]; rate 500 g ai/ha
  phytotoxicity rating IPOHE: 100
[25]; rate 63 g ai/ha
  phytotoxicity rating ECHCG: 0
[25]; rate 500 g ai/ha
  phytotoxicity rating ECHCG: 70

## Cn1nc(-c2cc(Oc3ncccc3[N+](=O)[O-])c(Cl)cc2F)c(Cl)c1C(F)(F)F [Compound 1-1]
[1]; 500 g ai/ha
  phytotoxicity rating SETVI: 100
[2]; 500 g ai/ha
  phytotoxicity rating CHEAL: 100
[3]; 500 g ai/ha
  phytotoxicity rating ABUTH: 60
[4]; 500 g ai/ha
  phytotoxicity rating SORHA: 70
[5]; 500 g ai/ha
  phytotoxicity rating AMARE: 100
[6]; 500 g ai/ha
  phytotoxicity rating CASOB: 20
[7]; 500 g ai/ha
  phytotoxicity rating DIGSA: 90
[8]; 500 g ai/ha
  phytotoxicity rating AMBEL: 50
[9]; 500 g ai/ha
  phytotoxicity rating IPOHE: 10
[10]; 500 g ai/ha
  phytotoxicity rating ECHCG: 50
[11]; 500 g al/ha
  AMBEL phytotoxicity rating (0-100): 100
[12]; 500 g al/ha
  RICE crop damage rating (0-100): 90
[13]; 500 g al/ha
  CORN crop damage rating (0-100): 60
[14]; 500 g ai/ha
  crop damage rating RICE: 20
[15]; 500 g ai/ha
  crop damage rating CORN: 20
[16]; 500 g al/ha
  SOY crop damage rating (0-100): 100
[17]; 500 g ai/ha
  crop damage rating SOY: 10
[18]; 500 g al/ha
  SETVI phytotoxicity rating (0-100): 100
[19]; 500 g al/ha
  CHEAL phytotoxicity rating (0-100): 100
[20]; 500 g al/ha
  ABUTH phytotoxicity rating (0-100): 100
[21]; 500 g al/ha
  SORHA phytotoxicity rating (0-100): 90
[22]; 500 g al/ha
  AMARE phytotoxicity rating (0-100): 100
[23]; 500 g al/ha
  DIGSA phytotoxicity rating (0-100): 95
[24]; 500 g al/ha
  IPOHE phytotoxicity rating (0-100): 100
[25]; 500 g al/ha
  ECHCG phytotoxicity rating (0-100): 100
